Results: patent EP0185961A2, “1-Phenyl-imidazole-5-carboxylic acid derivatives, process for their preparation and their use as growth regulators” (HOECHST AKTIENGESELLSCHAFT, priority 1984, dated 1986)
Like-named read-outs stand apart in the source and are kept apart here.

Key:
[1] = system: Gerste; experiment: Growth inhibition in cereals, greenhouse tray test, sprayed at 3-leaf stage; format: in vivo; details: % of growth increment of untreated controls; for pest or weed control at 1250 g/ha / pest or weed control at 2500 g/ha: read-out: Wuchsshemmung in % bei Gerste
From the text: (§1) In Schalenversuchen im Gewächshaus werden junge Getreidepflanzen (Weizen, Gerste, Roggen) im 3-Blattstadium mit erfindungsgemäßen Verbindungen in verschiedenen Wirkstoffkonzentrationen (kg/ha) tropfnaß gespritzt.
(§2) Es wird außerdem die phytotoxische Wirkung der Verbindung beobachtet.

[2] = system: Weizen; experiment: as above; format: in vivo; details: % of growth increment of untreated controls (100% = growth standstill); for pest or weed control at 1250 g/ha / pest or weed control at 2500 g/ha: read-out: Wuchsshemmung in % bei Weizen
From the text: (§3) In Schalenversuchen im Gewächshaus werden junge Getreidepflanzen (Weizen, Gerste, Roggen) im 3-Blattstadium mit erfindungsgemäßen Verbindungen in verschiedenen Wirkstoffkonzentrationen (kg/ha) tropfnaß gespritzt. […]

[3] = system: Roggen; experiment: as above; format: in vivo; details: % of growth increment of untreated controls; for pest or weed control at 1250 g/ha / pest or weed control at 2500 g/ha: read-out: Wuchsshemmung in % bei Roggen
From the text: as §3

[4] = system: Getreidepflanzen (Weizen, Gerste, Roggen); experiment: Phytotoxic effect observed in the cereal growth inhibition test; format: in vivo; details: cereals; one cell for 2,5 and 1,25 kg/ha
From the text: as §1, §2

[5] = system: Sojabohnen; experiment: Growth inhibition in soybeans; details: for pest or weed control at 2500 g/ha: Glycine max, 504 h, read-out: Wuchsshemmung (%); for Phytotox. Wirkung: soybeans, 2,5 kg/ha
From the text: (§4) Etwa 10 cm große Sojabohnen werden mit den Wirkstoffzubereitungen tropfnaß bespritzt. Nach 3 Wochen wird bonitiert.
(§5) Die Wuchshemmung wird als prozentualer Wert ermittelt, wobei 100% den Stillstand des Wachstums und 0% ein Wachstum entsprechend dem der unbehandelten Kontrollpflanzen bedeuten.

[6] = system: Sojabohnen; details: in vivo
From the text: as §4, §5

[7] = system: Reispflanzen; details: in vivo
From the text: (§6) Reispflanzen werden in Kleinparzellen (2 m x 2 m) angezogen und im Stadium der maximalen Bestockung mit erfindungsgemäßen Verbindungen behandelt. Die Substanzen werden sowohl durch Spritzung appliziert als auch in das Wasser gegeben.
(§7) 3 Wochen nach der Behandlung wird bei allen Pflanzen der Zuwachs gemessen und die Wuchshemmung in % des Zuwachses der Kontrollpflanzen berechnet. Es wird außerdem auf eine mögliche phytotoxische Wirkung der Verbindungen geachtet.
as §5

[8] = system: Reispflanzen; experiment: Growth inhibition in paddy rice, small plots; details: for pest or weed control at 620 g/ha / pest or weed control at 1250 g/ha: Oryza sativa, 504 h, read-out: Wuchsshemmung (%); for Phytotox. Wirkung: paddy rice, one cell for 1,25 and 0,62 kg/ha
From the text: as §6, §7, §5

Row | Compound | Wuchsshemmung in % bei Gerste ([1]; 1,25 kg/ha) | Wuchsshemmung in % bei Gerste ([1]; 2,5 kg/ha) | Wuchsshemmung in % bei Weizen ([2]; 1,25 kg/ha) | Wuchsshemmung in % bei Weizen ([2]; 2,5 kg/ha) | Wuchsshemmung in % bei Roggen ([3]; 1,25 kg/ha) | Wuchsshemmung in % bei Roggen ([3]; 2,5 kg/ha) | Phytotox. Wirkung [4] | pest or weed control at 1250 g/ha ([1]; 1,25 kg/ha) | pest or weed control at 2500 g/ha ([1]; 2,5 kg/ha) | pest or weed control at 2500 g/ha [5] | pest or weed control at 1250 g/ha ([2]; 1,25 kg/ha) | pest or weed control at 2500 g/ha ([2]; 2,5 kg/ha) | pest or weed control at 1250 g/ha ([3]; 1,25 kg/ha) | pest or weed control at 2500 g/ha ([3]; 2,5 kg/ha) | Phytotox. Wirkung [6] | Phytotox. Wirkung [7] | pest or weed control at 620 g/ha [8] | pest or weed control at 1250 g/ha [8] | Phytotox. Wirkung [5] | Phytotox. Wirkung [8]
1 | 2-Chlorethyltriethylammoniumchlorid [reference compound] | 0% | 8% | 23% | 27% | 0% | 10% | keine Schäden |  |  |  |  |  |  |  |  |  |  |  |  | 
2 | CCc1cccc(CC)c1-n1cncc1C(=O)ON1C(=O)c2ccccc2C1=O [Beispiel 2, Pthalimido-1-(2,6-diethylphenyl)-imidazol-5-carboxylat] |  |  |  |  |  |  | keine Schäden | 18% | 37% | 20% | 12% | 23% | 21% | 27% | keine Schäden | keine Schäden | 25% | 22% |  | 
3 | CCc1cccc(CC)c1-n1cncc1C(=O)NCCO [Beispiel 3, N-(2-Hydroxyethyl)-1-(2,6-diethylphenyl)-imidazol-5-carb-oxyamid] |  |  |  |  |  |  | keine Schäden | 17% | 35% | 21% | 13% | 22% | 20% | 26% | keine Schäden | keine Schäden | 16% | 21% |  | 
4 | CCc1cccc(CC)c1-n1cncc1C(=O)OCSC [Beispiel 4, Methylthiomethyl-1-(2,6-diethylphenyl)-imidazol-5-carboxylat] |  |  |  |  |  |  | keine Schäden | 17% | 34% | 21% | 14% | 21% | 20% | 26% |  |  | 16% | 21% | keine Schäden | keine Schäden
5 | CCc1cccc(CC)c1-n1cncc1-c1nnn[nH]1 [Beispiel 5, 1-(2,6-Diethylphenyl)-5-(5-tetrazolyl)-imidazol] |  |  |  |  |  |  | keine Schäden | 13% | 30% | 18% | 9% | 18% | 9% | 21% | keine Schäden | keine Schäden | 11% | 19% |  | 
6 | CCc1cccc(CC)c1-n1cncc1C1=NC(C)(C)CO1 [Beispiel 6, 1-(2,6-Diethylphenyl)-5-(4,4-dimethyl-2-oxazolin-2-yl)-imidazol] |  |  |  |  |  |  | keine Schäden | 13% | 25% | 19% | 8% | 17% | 9% | 17% | keine Schäden | keine Schäden | 11% | 18% |  | 
7 | CCc1cccc(CC)c1-n1cncc1-c1nc(C)no1 [Beispiel 7, 1-(2,6-Diethylphenyl)-5-(3-methyl-1,2,4-oxdiazol-5-yl)-imidazol] |  |  |  |  |  |  | keine Schäden | 19% | 39% | 26% | 15% | 24% | 21% | 28% | keine Schäden | keine Schäden | 15% | 24% |  | 
8 | CCc1cccc(CC)c1-n1cncc1C(N)=NO [Beispiel 8, 1-(2,6-Diethylphenyl)-imidazol-5-carboxamidoxim] |  |  |  |  |  |  | keine Schäden | 18% | 34% | 21% | 12% | 22% | 17% | 25% | keine Schäden | keine Schäden | 12% | 22% |  | 
9 | CCc1cccc(CC)c1-n1cncc1CO [Beispiel 12, 1-(2,6-Diethylphenyl)-5-hydroxymethyl-imidazol] |  |  |  |  |  |  | keine Schäden | 17% | 33% | 21% | 11% | 23% | 17% | 24% | keine Schäden | keine Schäden | 13% | 21% |  | 
10 | CCc1cccc(CC)c1-n1cncc1C=O [Beispiel 13, 1-(2,6-Diethylphenyl)-5-formyl-imidazol] |  |  |  |  |  |  | keine Schäden | 19% | 37% | 25% | 15% | 24% | 19% | 27% | keine Schäden | keine Schäden | 16% | 24% |  | 
11 | CCc1cccc(CC)c1-n1cncc1C=NO [Beispiel 14, 1-(2,6-Diethylphenyl)-5-hydroximinomethyl-imidazol] |  |  |  |  |  |  | keine Schäden | 16% | 32% | 20% | 11% | 19% | 13% | 24% |  |  | 13% | 21% | keine Schäden | keine Schäden
12 | CCc1cccc(CC)c1-n1cncc1C(=O)OC1CCCCC1 [Beispiel 36] |  |  |  |  |  |  | keine Schäden | 17% | 33% | 19% | 10% | 19% | 13% | 23% | keine Schäden | keine Schäden | 14% | 21% |  | 
13 | C#CCOC(=O)c1cncn1-c1c(CC)cccc1CC [Beispiel 37] |  |  |  |  |  |  | keine Schäden | 12% | 25% | 17% | 8% | 15% | 7% | 19% |  |  | 11% | 19% | keine Schäden | keine Schäden
14 | CCc1cccc(CC)c1-n1cncc1C(=O)ON=C(C)C [Beispiel 40] |  |  |  |  |  |  | keine Schäden | 19% | 38% | 26% | 16% | 25% | 21% | 27% | keine Schäden | keine Schäden | 18% | 25% |  | 
15 | CCc1cccc(CC)c1-n1cncc1C(=O)ON=C(C)C(C)C [Beispiel 42] |  |  |  |  |  |  | keine Schäden | 16% | 31% | 19% | 12% | 21% | 14% | 19% | keine Schäden | keine Schäden | 14% | 19% |  | 
